The nature of data set [1]: Determination of logP, pka and logS (Sirius T3). The data set is classed as physicochemical. As to conditions: Experimental. Here is the method:
The physicochemical parameters were determined on a Sirius T3 machine (Sirius Analytical machines, East Sussex, UK) by automated titration according to the manufacturer's instructions.

The target in data set [2] is T1, CK2α (Homo sapiens, UniProt P68400).
T1 construct: purchased Life Technologies (Invitrogen SelectScreen); Dyrk1A, Dyrk2 and CK2α in-house or gifts
T1 sequence (P68400 whole entry): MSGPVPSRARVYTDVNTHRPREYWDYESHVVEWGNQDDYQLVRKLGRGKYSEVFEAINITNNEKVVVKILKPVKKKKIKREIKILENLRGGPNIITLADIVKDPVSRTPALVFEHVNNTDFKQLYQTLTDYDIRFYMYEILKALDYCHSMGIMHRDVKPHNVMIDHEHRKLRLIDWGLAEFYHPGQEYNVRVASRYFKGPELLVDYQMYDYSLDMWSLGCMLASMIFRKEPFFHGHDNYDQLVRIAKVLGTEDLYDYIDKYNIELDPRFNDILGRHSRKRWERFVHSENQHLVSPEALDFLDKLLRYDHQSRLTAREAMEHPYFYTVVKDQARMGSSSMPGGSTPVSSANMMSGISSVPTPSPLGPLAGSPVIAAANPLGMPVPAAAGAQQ
Briefly: CK2α kinase assay (counter screen). The data set is classed as biochemical. The settings on record: read-out: percentage of inhibition CK2α. Here is the method: Dyrk1A, Dyrk1B, Dyrk2, CK2α and Clk1 kinase reactions were performed in a reaction buffer containing 50 mM Tris/HCl, pH 7.4, 0.1 mM EGTA, 0.5 mM DTT, 10 mM MgCl2, 100 µM ATP and 0.33 µM [γ-^32ATP] as well as the appropriate substrate peptides, which were 100 µM Woodtide for the Dyrk isoforms ([…]-NH2), 60 µM CK2 substrate peptide ([…]-NH2, from Millipore) for CK2α or RS repeat peptide ([…]) for Clk1. The CK2α protein was a kind gift of M. Montenarh (Homburg). The kinase reactions were performed at 30°C for 15 min and terminated by spotting 5 µL of the reaction mixture onto a P81 phosphocellulose membrane (Whatman). The membrane was washed four times with 0.3% phosphoric acid and one time with acetone and dried. The dry membrane was exposed in a cassette to a Phosphor Screen Imaging Plate (FujiFilm) and the signals detected by scanning of the imaging plate in a Fuji FLA-3000 PhosphoImager. The spots were quantified using AIDA software (Raytest, Version 3.52) to determine the activities of the kinases in the assay reactions. […] IC50 values were calculated by fitting the data with Origin Pro 8.6 (OriginLabs). The calculated IC50 values are representative of at least two independent determinations.
For orientation: Counterscreens check selectivity or assay interference.

Data set [3] has as its target T2, Dyrk1B (Homo sapiens, UniProt Q9Y463).
T2 construct: purchased Life Technologies PV4649 (LOT # 877059G)
Briefly: Dyrk1B kinase assay (32P-ATP, Woodtide). In kind it is biochemical. As to conditions: for IC50: 100 µM ATP; for inhibition at 5 µM: read-out: percentage of inhibition Dyrk1B.

For data set [4], the target named is T3, Dyrk1A (Homo sapiens, UniProt Q13627).
T3 construct: encoding the catalytic domain of human Dyrk1A; thrombin cleavage site (N); made in house; host or cells: Escherichia coli BL21(DE3) with pRARE
Briefly: Dyrk1A kinase assay (32P-ATP, Woodtide). In kind it is biochemical. As to conditions: for IC50: 100 µM ATP; for inhibition at 5 µM: read-out: percentage of inhibition Dyrk1A.

The target of data set [5] is T4, Dyrk2 (Homo sapiens, UniProt Q92630).
T4 construct: made in house; host or cells: Escherichia coli BL21(DE3) with pRARE; plasmid pGEX-2TK-Dyrk2 (gift from W. Becker, Aachen)
T4 sequence (Q92630 1-601): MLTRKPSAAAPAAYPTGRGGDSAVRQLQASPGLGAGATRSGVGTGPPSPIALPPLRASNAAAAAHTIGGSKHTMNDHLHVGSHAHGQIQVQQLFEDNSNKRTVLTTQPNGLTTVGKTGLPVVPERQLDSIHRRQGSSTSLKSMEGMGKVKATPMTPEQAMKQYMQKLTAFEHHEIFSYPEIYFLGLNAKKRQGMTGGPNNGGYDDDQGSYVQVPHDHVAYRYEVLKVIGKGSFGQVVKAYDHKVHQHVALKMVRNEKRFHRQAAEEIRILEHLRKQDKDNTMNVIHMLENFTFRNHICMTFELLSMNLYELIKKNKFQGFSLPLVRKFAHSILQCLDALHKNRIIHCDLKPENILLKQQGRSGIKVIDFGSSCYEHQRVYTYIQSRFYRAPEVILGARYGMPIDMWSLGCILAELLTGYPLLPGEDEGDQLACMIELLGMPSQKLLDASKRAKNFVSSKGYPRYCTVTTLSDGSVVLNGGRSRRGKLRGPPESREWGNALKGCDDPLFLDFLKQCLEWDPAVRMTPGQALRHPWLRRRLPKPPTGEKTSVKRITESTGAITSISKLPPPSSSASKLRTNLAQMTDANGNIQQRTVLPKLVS
Briefly: Dyrk2 kinase assay (32P-ATP, Woodtide). The data set is classed as biochemical. As to conditions: for inhibition at 5 µM: read-out: percentage of inhibition Dyrk2.

The subject of data set [6] is V79 hamster lung fibroblast cells. Briefly: ViaLight Toxicity Assay. The data set is classed as cell-based. The settings on record: 48 hours. On the procedure:
V79 hamster lung fibroblast cells were plated at a density of 45,000 cells per well in a white 96 well plate and allowed to adhere and grow for 24 hours. The compounds were then applied as dilutions in cell culture medium (DMEM with 10% FCS and penicillin/streptomycin mix) at a final concentration of 5, 10, and 20 µM, respectively. The plate was further incubated for 48 hours at 37°C in a humidified atmosphere containing 5% CO2. The ATP level was detected with a LONZA ViaLight™ Plus Kit according to protocol 1 of the vendor's instructions. Luminescence was measured in a POLARstar plate reader (BMG Labtech, Offenburg, Germany). The background luminescence was obtained from equally treated, cell-free wells containing serum, and subtracted from all values. Inhibition values obtained for different compound concentrations were compared using the two-sided Student's t-test; levels of significance thus obtained are indicated by asterisks.

Data set [7] deals with U2OS osteosarcoma cells. Briefly: Caspase-3 Assay (Caspase-Glo 3/7). The data set is classed as cell-based. As to conditions: starved U2OS cells, 48 hours, vs DMSO control. Here is the method:
U2OS osteosarcoma cells were seeded in a 96 well flat bottom plate (15*10^3 cells/well). […] The induction of caspase-3/7 activity was measured using the Promega Caspase-Glo 3/7 assay system (Promega, LOT 0000054568). The resulting luciferase reaction signals that are proportional to the caspase induction were measured in a POLARstar plate reader (BMG Labtech, Offenburg, Germany). […] Values obtained for different compound concentrations were compared using the two-sided Student's t test; levels of significance thus obtained are indicated by asterisks.

Data set [8] in a line: Metabolic Stability Assay. As to conditions: male, Sprague-Dawley, rat, microsomes.
Data set [9] addresses Clk1 (Homo sapiens, UniProt P49759). Briefly: Clk1 kinase assay (RS repeat peptide). As to conditions: read-out: % inhibition Clk1. In kind it is biochemical.
[10] abbreviates: 100 µM ATP, read-out: IC50 Dyrk2.

Where two headings read alike, the source gives them in different places.

As a reminder, the logP is the decadic logarithm of the partition coefficient of the neutral form, usually between octanol and water. Lower therefore signals lower lipophilicity. Usually inhibition stands for the drop in the measured response relative to a control, in per cent. Broadly, the IC50 is the concentration needed to halve the response being measured. A word on the melting point: it is the temperature, or range, at which the solid turns liquid. As usually defined, the half-life is the time needed for the level to fall by half in the phase considered. The low end stands for rapid decline, the high end for slow decline.

T2 sequence (Q9Y463 whole entry): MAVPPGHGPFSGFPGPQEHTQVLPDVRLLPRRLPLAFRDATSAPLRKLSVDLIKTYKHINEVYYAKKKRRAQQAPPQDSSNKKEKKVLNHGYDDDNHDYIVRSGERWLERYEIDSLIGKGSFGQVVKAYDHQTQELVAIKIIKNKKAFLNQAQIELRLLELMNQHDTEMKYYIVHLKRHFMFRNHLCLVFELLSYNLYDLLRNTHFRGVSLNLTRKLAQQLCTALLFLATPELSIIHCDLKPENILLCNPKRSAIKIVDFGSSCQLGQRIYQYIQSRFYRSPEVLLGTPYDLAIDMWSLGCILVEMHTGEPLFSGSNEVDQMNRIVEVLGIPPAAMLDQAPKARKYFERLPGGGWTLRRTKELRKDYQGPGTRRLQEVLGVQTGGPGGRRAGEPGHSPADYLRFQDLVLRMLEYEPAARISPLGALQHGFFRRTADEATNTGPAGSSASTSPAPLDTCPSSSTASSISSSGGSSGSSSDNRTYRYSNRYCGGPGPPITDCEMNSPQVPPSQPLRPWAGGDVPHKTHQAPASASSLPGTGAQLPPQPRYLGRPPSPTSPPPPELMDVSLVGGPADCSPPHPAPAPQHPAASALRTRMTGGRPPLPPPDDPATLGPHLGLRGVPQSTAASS
Sequence of Clk1 (P49759 whole entry): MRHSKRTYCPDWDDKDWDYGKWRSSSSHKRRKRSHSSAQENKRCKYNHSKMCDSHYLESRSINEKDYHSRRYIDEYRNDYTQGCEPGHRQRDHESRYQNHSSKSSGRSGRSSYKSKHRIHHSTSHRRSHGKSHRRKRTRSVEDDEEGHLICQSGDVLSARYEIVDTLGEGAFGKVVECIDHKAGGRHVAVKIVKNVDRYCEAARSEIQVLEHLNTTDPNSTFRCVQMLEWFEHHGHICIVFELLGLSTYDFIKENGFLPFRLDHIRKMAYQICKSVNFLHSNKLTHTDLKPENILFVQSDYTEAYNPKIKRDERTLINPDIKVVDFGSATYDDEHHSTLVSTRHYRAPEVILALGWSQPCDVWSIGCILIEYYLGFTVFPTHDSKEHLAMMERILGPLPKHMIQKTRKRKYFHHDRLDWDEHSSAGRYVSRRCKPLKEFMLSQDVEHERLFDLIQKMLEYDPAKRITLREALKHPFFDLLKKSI

`c1cncc(-c2csc(-c3cccnc3)c2)c1` [Compound 4] registered a logP in data set [1] of 2.47. Besides, the solubility was 500 µg/mL in data set [1] (read-out: Solubility) and 2140 µM in data set [1] (read-out: logS (converted)). For the same compound, the results for the pKa in [1] (read-out: pka1) and in data set [1] (read-out: pka2) were 3.48 and 4.8, respectively. In [2], the inhibition at 5 µM stood at 18.5%.

On to `NC(=O)c1cncc(-c2csc(-c3cccnc3)c2)c1` [Compound 19, 5-[5-(pyridin-3-yl)thiophen-3-yl]pyridine-3-carboxamide], for which the melting point is 217 to 218 °C. The compound further showed an IC50 in [3] of 1500 nM. This compound came in with an IC50 in data set [4] of 900 nM. Also, the IC50 in data set [5] (setting [10]) is 300 nM. The inhibition at 5 µM in data set [2] amounted to 4.2%.

Turning to `Cc1cncc(-c2csc(-c3cccnc3)c2)c1` [Compound 5, 3-methyl-5-[5-(pyridin-3-yl)thiophen-3-yl]pyridine], the melting point lay within 106 to 107 °C. Moreover, the IC50 in [3] worked out at 1200 nM. Also, the IC50 in data set [4] came out at 900 nM. The 50% inhibitory concentration (IC50) in data set [5] (setting [10]) turned out to be 600 nM. In data set [2], the inhibition at 5 µM is 5%.

For the compound `c1cncc(-c2cc(-c3ccncc3)cs2)c1` [Compound 11], the inhibition at 5 µM is 10% in [3], 10% in [4] (at 5 µM), 20% in [5] (at 5 µM) and 0% in [2]. In addition, the “influence on cell growth (cellular ATP levels)” value in data set [6] (V79 cells, 5, 10 and 20 µM) is “no influence”. Further, in data set [7], the caspase-3/7 activity entry is given as “only a slight increase”.

Regarding `COc1ccc2c(c1)[nH]c1c(C)nccc12` [Harmine, harmine, reference compound], the inhibition at 5 µM was found to be 98% in data set [3], 98% in data set [4], 68% in [5] and 97% in data set [9]. For the same compound, the “influence on cell viability (cellular ATP levels)” value in [6] (V79 cells, 5 µM) is given as “slightly toxic”. In addition, the CLhep predicted at 0.5 µM in data set [8] is 53 mL/min/kg. In addition, in [8], the half-life at 0.5 µM was 18 min. This compound also showed an IC50 in data set [5] (IC50 Dyrk2, 100 µM ATP) of 3000 nM.

As for `Fc1cncc(-c2csc(-c3cccnc3)c2)c1` [Compound 15, 3-fluoro-5-[5-(pyridin-3-yl)thiophen-3-yl]pyridine], the melting point was in the range of 186 to 187 °C. For the same compound, the IC50 in data set [3] amounted to 1400 nM. Also, the IC50 in [4] was found to be 900 nM. In addition, in data set [5] (setting [10]), the half-maximal inhibitory concentration (IC50) worked out at 400 nM. Also, the inhibition at 5 µM in data set [2] came to 0%.

`CC(=O)c1cncc(-c2csc(-c3cccnc3)c2)c1` [Compound 17, 1-{5-[5-(pyridin-3-yl)thiophen-3-yl]pyridin-3-yl}ethan-1-one] had a melting point of 166 to 167 °C. In data set [3], the IC50 turned out to be 1100 nM. The IC50 in [4] came to 900 nM. For the same compound, the concentration for half-maximal inhibition (IC50) in [5] (setting [10]) is 900 nM. Besides, in data set [2], the inhibition at 5 µM stood at 0%.
